The target of experiment [1] is T1, CaM/CaMBD complex (CaM and SK2 channel fragment R395–Q486) (Rattus norvegicus, UniProt P0DP29+P70604).
T1 construct: gene Kcnn2; both expressed in E. coli Rosetta-2
The experiment can be described thus: X-ray crystal structure (soaked crystals). Format: binding. The settings on record: Ca2+-CaM, site at interface of CaMBD and CaM N-lobe.

The target in experiment [2] is T2, SK2-a channel (SK2, KCa2.2) co-expressed with CaM (Rattus norvegicus, UniProt P0DP29+P70604).
T2 construct: gene Kcnn2; full-length SK2-a co-transfected with CaM and GFP in TsA201 cells; tetrameric channel
The experiment can be described thus: inside-out patch clamp, potentiation of SK2 current. Format: cell-based. Background: Patch clamp records ionic current or voltage across a cell membrane.

Experimental findings from publication PMC5719431, “Structural insights into the potency of SK channel positive modulators” (Scientific Reports, 2017) are described below.

The term EC50 denotes the concentration needed to bring the measured effect to its halfway point.

T2 sequence (P70604 whole entry, one chain of several): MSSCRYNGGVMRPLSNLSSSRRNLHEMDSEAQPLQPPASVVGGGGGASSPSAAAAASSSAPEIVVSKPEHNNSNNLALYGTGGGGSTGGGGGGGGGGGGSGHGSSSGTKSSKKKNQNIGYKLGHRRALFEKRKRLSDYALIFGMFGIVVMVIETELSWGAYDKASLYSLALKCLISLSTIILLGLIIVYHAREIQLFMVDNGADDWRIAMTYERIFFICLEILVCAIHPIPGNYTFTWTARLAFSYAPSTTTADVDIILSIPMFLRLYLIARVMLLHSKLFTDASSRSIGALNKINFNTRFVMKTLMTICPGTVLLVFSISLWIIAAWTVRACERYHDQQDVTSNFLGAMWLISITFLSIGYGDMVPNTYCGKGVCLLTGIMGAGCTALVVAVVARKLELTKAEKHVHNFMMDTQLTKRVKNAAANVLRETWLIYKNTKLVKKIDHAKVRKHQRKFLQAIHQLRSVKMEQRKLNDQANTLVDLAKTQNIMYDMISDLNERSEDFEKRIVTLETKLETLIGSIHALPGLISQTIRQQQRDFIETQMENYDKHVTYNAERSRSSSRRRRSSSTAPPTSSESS
T1 sequence (P70604 396-487, one chain of several): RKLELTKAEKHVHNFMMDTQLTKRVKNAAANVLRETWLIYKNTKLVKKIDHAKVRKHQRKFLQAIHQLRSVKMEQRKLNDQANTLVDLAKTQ

With `O=C1Nc2c(F)cccc2C1=NO` [SKS-14, 7-fluoro-3-(hydroxyimino)indolin-2-one], the “X-ray crystal structure (soaked crystals)” value in experiment [1] (soaked about 5 months) was “crystal structures of SKS-11 and SKS-14 in complex with their binding pocket”. Further, the EC50 in experiment [2] is 33.2 ± 4.8 µM.

For `Cc1cc2c(cc1Br)NC(=O)C2=NO` [SKS-11, 6-bromo-5-methyl-1H-indole-2,3-dione-3-oxime], the “X-ray crystal structure (soaked crystals)” value in experiment [1] (soaked about 1 month) is “crystal structures of SKS-11 and SKS-14 in complex with their binding pocket”. The EC50 in experiment [2] came out at 3.87 ± 0.88 µM. Turning to `O=C1Nc2c(ccc(Cl)c2Cl)C1=NO` [NS309], the EC50 in experiment [2] was determined as 0.552 ± 0.083 µM.
